# Reference: publication PMC6748986, “Potent modulation of the CepR quorum sensing receptor and virulence in a Burkholderia cepacia complex member using non-native lactone ligands” (Scientific Reports, 2019)
# pEC50: −log10 of the molar value.
# Legend:
# [1] = target: T1, CepR (Burkholderia cenocepacia, UniProt B4EMD0); assay: CepR agonism in E. coli β-galactosidase reporter (Ec-reporter) JLD271 [pJN105-cepR + pSC11-cepI]; type: cell-based, B. cenocepacia; conditions: for Act%: screening conc. 100 μM; for Maximal Activation (%): activity for 100 μM C8-AHL set to 100%, error ±10%
# T1 sequence (B4EMD0 1-239): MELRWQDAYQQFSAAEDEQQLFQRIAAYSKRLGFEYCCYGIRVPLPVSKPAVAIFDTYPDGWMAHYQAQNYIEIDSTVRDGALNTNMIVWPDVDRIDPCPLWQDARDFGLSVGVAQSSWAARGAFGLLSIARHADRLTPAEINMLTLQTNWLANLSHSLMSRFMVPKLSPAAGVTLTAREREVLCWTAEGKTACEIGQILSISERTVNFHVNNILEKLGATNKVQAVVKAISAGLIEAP
# Source text: (§1) We began our study by screening the AHL library for CepR modulators using an E. coli-based two plasmid reporter system (Ec-reporter)[38]–[40]. Certain members of the Bcc harbor additional QS systems that are either AHL-based (e.g., BviI/BviR in B. vietnamiensis)[41] or diffusible signal factor (DSF)-based (B. cenocepacia)[42], and at least one member of the Bcc has multiple receptors that respond to C8-AHL (e.g., CepR and CepR2 in B. cenocepacia)[43]. Thus, we reasoned that using a CepR reporter in a heterologous background could simplify our initial analyses. We modified our previously reported E. coli-based two plasmid β-galactosidase reporter system to develop a CepR Ec-reporter (see Methods). The first plasmid, pJN105-cepR, contains CepR from B. cenocepacia under the control of the L-arabinose inducible pBAD promoter. A second plasmid contains a transcriptional fusion of lacZ to the cepI promoter region. The two plasmids were co-transformed into a QS mutant E. coli strain (JLD271 ∆sdiA) that lacks its LuxR-type receptor, SdiA. Using this reporter system, if an exogenously -added compound is able to interact with CepR, this will affect the protein’s interaction with the cepI promoter region and alter β-galactosidase production. Enzyme production, and thereby CepR activity, is then measurable via the degradation of a colorimetric substrate for β-galactosidase. Using this new Ec-reporter, we observed robust activity of CepR in response to its native ligand C8-AHL, with an EC50 of 5 nM (Table 1).
# We used the CepR Ec-reporter to perform a primary agonism screen at a single compound concentration (100 μM, or its solubility limit, indicated in Table S1). Thirty-one compounds displaying ≥70% agonistic activity in CepR (relative to C8-AHL) were identified and subjected to dose-response analyses using the Ec-reporter (Table I; see Table S2 for complete screening data and Fig. S3 for dose-response curves).
# (§2) E. coli β-galactosidase reporter assays (derived from ref.[63]) and reagents used to obtain primary screening and dose-response data were performed as previously described[22],[60],[64], with the following modifications: E. coli JLD271 (∆sdiA) was co-transformed iteratively with pSC11-cepI and pJN105-cepR via electroporation. A single colony was used to start overnight cultures in LB medium + ampicillin (100 μg/mL) + gentamicin (15 μg/mL). A 1:10 dilution of overnight culture was grown in fresh medium to OD600 = 0.25. A sterile solution of L-arabinose in water (27 mM final concentration) was added to induce protein expression, after which cells were plated in 96-well plates containing varying concentrations of compound (200 μL total volume).
# (§3) Cells were grown for 4 h, OD600 was read, 50 μL aliquots from each well were permeabilized in 200 μL Z Buffer, and then 150 μL of this mixture used to measure the cleavage of 25 μL of 4 mg/mL CPRG in phosphate buffered saline (PBS) at 37 °C until positive control wells developed a deep red color (~30 min). For all agonism assays, synthetic compound (100 μM) was screened alongside and compared to the native ligand, C8-AHL (100 μM). For all primary and dose-response antagonism assays, the concentration of native ligand utilized was 10 nM (approximately equal to twice its EC50 value). […] At least 3 separate trials were performed using unique cultures on separate days.
# [2] = target: T1, CepR; assay: CepR antagonism in E. coli β-galactosidase reporter (Ec-reporter), competition against C8-AHL; type: cell-based, B. cenocepacia; conditions: for Inh% (100-Act%): Table S3, Ec-reporter, screening conc. 100 μM, against 10 nM C8-AHL; for CepR antagonism in words: Ec-reporter
# Source text: as §1
# To identify antagonists of CepR, we screened the AHL library (at 100 μM) in competition against the native ligand C8-AHL (at approximately twice its EC50 value, 0.01 μM) in the Ec-reporter. […] The active compounds were subjected to dose-response analyses in the Ec-reporter to obtain IC50 values and assess their relative potencies (Table 2; see Table S3 for complete screening data and Fig. S3 for dose-response curves). One general trend that we noted at the outset was the majority of the antagonists had acyl tails of similar or shorter overall length than CepR’s native ligand, C8-AHL. From this set, the strongest antagonists could be divided into two classes: (i) “short alkyl tail” AHLs or analogs thereof, and (ii) phenylacetanoyl HLs (PHLs). The discovery that the latter compounds were CepR antagonists was perhaps not surprising, as we have found substituted PHLs to strongly antagonize the majority of the LuxR-type receptors studied in our laboratory to date[22],[24],[29],[45],[46].
# as §2, §3
Molecule,"Act% ([1]; Table S2, Ec-reporter) [%]",Inh% (100-Act%) [2] [%],also measured
"CCCCCCCCCCCCCC(=O)CC(=O)NC1CCOC1=O (centres unmarked) [3’O-C16-AHL, reference compound]",8.3,-50,–
O=C(Cc1cccc(F)c1)N[C@H]1CCOC1=O [Compound C3],0.2,20,CepR antagonism in words [2]: inactive as antagonists
O=C(CCc1cccc([N+](=O)[O-])c1)N[C@H]1CCOC1=O [Compound E38],93,-10,"pEC50 ([1]; Ec-reporter, agonism dose-response): 6.18; Maximal Activation (%) ([1]; Ec-reporter): 93%"
O=C(Cc1ccccc1F)N[C@H]1CCOC1=O [Compound C4],0.1,3.0,CepR antagonism in words [2]: inactive as antagonists
O=C(N[C@H]1CCOC1=O)c1cnn(-c2ccccc2)c1C(F)(F)F [Compound D9],14,0.0,–
O=C(COc1ccc(Cl)cc1)N[C@H]1CCOC1=O [Compound E20],100,-20,"pEC50 ([1]; Table S2, Ec-reporter): 6.68"
O=C(Cc1ccc(O)cc1)N[C@H]1CCOC1=O [Compound C23],-0.5,-10,–
Cc1ccc(C(=O)N[C@H]2CCOC2=O)cc1 [Compound Q8],19,-20,–
"CCCCCCCC(=O)CC(=O)N[C@H]1CCOC1=O [3’O-C10-AHL, reference compound]",110,-60,"pEC50 ([1]; Table S2, Ec-reporter): 5.64"
O=C(Cc1cccc([N+](=O)[O-])c1)Nc1cccc([N+](=O)[O-])c1 [Compound F55],25,13,CepR antagonism in words [2]: dramatic losses in activity
O=C(N[C@H]1CCOC1=O)c1ccccc1Br [Compound Q1],5.8,-30,–
COc1cccc(OCC(=O)N[C@H]2CCOC2=O)c1 [Compound E18],30,0.0,–
O=C(COc1ccc(OC(F)(F)F)cc1)N[C@H]1CCOC1=O [Compound D15],46,-20,–
Cc1cccc(CCC(=O)N[C@H]2CCOC2=O)c1 [Compound E27],75,-10,"pEC50 ([1]; Table S2, Ec-reporter): 6.07"
O=C(N[C@H]1CCOC1=O)c1ccc(I)cc1 [Compound Q5],78,0.0,–
"CCCCCCCCCCCCCC(=O)N[C@H]1CCOC1=O [Compound C14-AHL, tetradecanoyl L-homoserine lactone, reference compound]",49,-10,CepR agonism in words ([1]; Ec-reporter): inactive; Maximal Activation (%) ([1]; Ec-reporter): 49%
"O=C(CCCc1ccccc1)N[C@H]1CCOC1=O [Control 6, reference compound]",80,3.0,–
CC(C)(C)OC(=O)NCCCCC(=O)N[C@H]1CCOC1=O [Compound D1],16,11,–
O=C(Cc1cccc([N+](=O)[O-])c1)NC1CCSC1=O (centres unmarked) [Compound F11],45.0,25,–
"CCCCCCCCCCCCn1nnc(CC(=O)O)n1 [PD-12, reference compound]",-7.6,-40,–
"CCCCCCCCCCCC(O)CC(=O)N[C@@H]1CCOC1=O (some centres unmarked) [3’OH-C14-AHL, reference compound]",33,-40,–
O=C(CCc1c[nH]c2ccccc12)N[C@H]1CCOC1=O [Compound B14],96,-40,–
COc1cc(C(C)=O)ccc1OCC(=O)N[C@H]1CCOC1=O [Compound D16],3.5,0.0,–

Molecule,"Act% ([1]; Table S2, Ec-reporter) [%]",Inh% (100-Act%) [2] [%],also measured
O=C(N[C@H]1CCOC1=O)c1ccc(-c2ccccc2)cc1 [Compound Q12],111,-70,–
"CCCCCCCCCCCCCC(O)CC(=O)NC1CCOC1=O (centres unmarked) [3’OH-C16-AHL, reference compound]",8.0,-50,–
CCCCCCCCc1ccc(C(=O)N[C@H]2CCOC2=O)cc1 [Compound D13],4.2,38,–
O=C(COc1ccc(C(F)(F)F)cc1)N[C@H]1CCOC1=O [Compound E23],89,-10,–
O=C(COc1ccc(Br)cc1)N[C@H]1CCOC1=O [Compound E21],89,-10,–
CCOc1ccc(C(=O)N[C@H]2CCOC2=O)cc1 [Compound R1],99,-20,"pEC50 ([1]; Table S2, Ec-reporter): 6.74"
"CCCCCCCCCC(=O)NC1CCCC1 [Compound C10-CPA, reference compound]",48,4.0,–
O=C(Cc1ccc(SC(F)(F)F)cc1)N[C@H]1CCOC1=O [Compound E8],14,0.0,–
CCCCCC(=O)CC(=O)NC1CCSC1=O (centres unmarked) [3’O-C8-TL],61,-20,–
Cc1cccc(OCC(=O)N[C@H]2CCOC2=O)c1 [Compound E16],11,21,–
[N-]=[N+]=Nc1ccc(CC(=O)N[C@H]2CCOC2=O)cc1 [Compound C17],1.0,26,–
O=C(CCCc1ccccc1)N[C@@H]1CCOC1=O [Compound B3],-0.4,-30,–
O=C(CCCc1c[nH]c2ccccc12)NC1CCCC1 [Compound F21],-4.0,25,–
"CCCCCCCCCC(=O)CC(=O)NC1CCCCC1=O (centres unmarked) [Control 15, reference compound]",5.2,29,–
"meta-bromo-thiolactone [mBTL, reference compound]",0.4,-60,–
Cc1nc(-c2ccccc2)oc1CC(=O)N[C@H]1CCOC1=O [Compound D4],40,22,–
O=C(Cc1ccc(I)cc1)N[C@H]1CCOC1=O [Compound C10],29,-10,–
O=C(Cc1ccc2ccccc2c1)N[C@H]1CCOC1=O [Compound E12],11,-10,–
O=C(CC1CCCCC1)N[C@H]1CCOC1=O [Compound S7],7.6,20,–
"CCCCCCCCCC(=O)CC(=O)Nc1cccc(OC)c1 [Control 13, reference compound]",2.0,13,–
"O=C(NCc1cc(Br)cc(Br)c1OC(=O)c1ccccc1[N+](=O)[O-])c1ccccc1Cl [TP-1P, reference compound]",54,0.0,–
O=C(COc1ccc([N+](=O)[O-])cc1)N[C@H]1CCOC1=O [Compound E24],75,-10,–
